Experimental data taken from patent US20250129103A1, “METHODS FOR TREATMENT OF CANCER” (Frontier Medicines Corporation, priority 2022, published 2025).
≈ marks a conversion by molar mass, not a printed value.

Columns and labels:
[1] = target: KRAS G12C (GMPPNP-loaded) and cRAF (Ras-binding domain) interaction (Homo sapiens (Human), UniProt P01116, C118S/C51S/C80L/G12C); test: Inhibition of KRAS G12C and cRAF binding (AlphaScreen); details: KRAS G12C loaded with GMPPNP, cRaf RBD, 2 hours preincubation; read-out: Raf-1 RBD K-Ras IC50
Sequence of KRAS G12C (GMPPNP-loaded) and cRAF (Ras-binding domain) interaction (P01116 other isoform, or with tags, fused parts or gaps G12C/C51S/C80L/C118S): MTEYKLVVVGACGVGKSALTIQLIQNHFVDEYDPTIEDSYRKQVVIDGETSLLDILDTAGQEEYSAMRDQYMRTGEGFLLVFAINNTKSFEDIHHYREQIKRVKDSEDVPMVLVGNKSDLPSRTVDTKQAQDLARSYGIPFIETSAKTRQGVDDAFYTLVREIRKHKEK
Outline: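 GMPPNP-loaded KRAS G12C in 25 mM Hepes pH 7.4, 150 mM NaCl, 5 mM MgCl2, 0.01% Triton X-100, 10 μM GMPPNP, 2% DMSO, preincubated with compound 2 h at room temperature. cRAF RBD plus AlphaScreen beads then added for 60-90 min; signal read at 570 nm.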

[2] = Determination of kinetic solubility (pH 7.4); format: physicochemical; details: phosphate buffer, pH 7.4, aqueous buffer, kinetic from dmso stock, 50 mM phosphate buffer pH 7.4, read-out: Ksol, pH 7.4
Outline: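 Sample mixed with 50 mM phosphate buffer, pH 7.4, vortexed, then shaken 2 h at room temperature and centrifuged. Filtrate analysed by HPLC-UV and LC-MS/MS, with solubility read from peak areas against a standard calibration curve.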

[3] = Determination of logD (1-octanol / phosphate buffer pH 7.4); format: physicochemical; details: 1-octanol/phosphate buffer, pH 7.4, pH 7.4, 1-octanol/phosphate buffer; read-out: Log D, pH 7.4
Outline: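 Shake-flask partition between 1-octanol and 100 mM phosphate buffer pH 7.4, each phase presaturated with the other overnight. Tubes shaken 1 h at 800 rpm, room temperature, then centrifuged. Both phases quantified by LCMS and logD calculated from the ratio.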

Row | SMILES | IC50 [1] [nM] | solubility kinetic at 2 h [2] [µg/mL] | logD [3]
1 | N#CC[C@H]1CN(c2nc(OC[C@@]34CCCN3C[C@H](F)C4)nc3c(F)c(-c4cccc(Cl)c4C4CC4)ncc23)CCN1C(=O)/C=C/CN1CC2CCC(C1)O2 [Compound 261] | 10 to 100 | 56.7 (≈ 74.7 µM) | 3.14
2 | Cc1c(Cl)cccc1-c1ncc2c(N3CCN(C(=O)/C=C/CN4[C@@H]5CC[C@H]4COC5)[C@@H](CC#N)C3)nc(OC[C@@]34CCCN3C[C@H](F)C4)nc2c1F [Compound 273] | < 10 | 124 (≈ 169 µM) | 3.1
3 | N#CC[C@H]1CN(c2nc(OC[C@@]34CCCN3C[C@H](F)C4)nc3c(F)c(-c4cccc5cccc(Cl)c45)ncc23)CCN1C(=O)/C=C/CN1CCOC2CC21 (stereo partly drawn) [Compound 274] | 10 to 100 | 76.2 (≈ 101 µM) | 3.14
4 | N#CC[C@H]1CN(c2nc(OC[C@@]34CCCN3C[C@H](F)C4)nc3c(F)c(-c4cccc(Cl)c4C(F)F)ncc23)CCN1C(=O)/C=C/CN1[C@@H]2CC[C@H]1COC2 [Compound 275] | < 10 | 106 (≈ 137 µM) | 2.73
5 | N#CC[C@H]1CN(c2nc(OC[C@@]34CCCN3C[C@H](F)C4)nc3c(F)c(-c4cccc(Cl)c4C4CC4)ncc23)CCN1C(=O)/C=C/CN1C2COCC1C2 [Compound 278] | < 10 | 66.6 (≈ 89.4 µM) | 3.3
6 | N#CC[C@H]1CN(c2nc(OC[C@@]34CCCN3C[C@H](F)C4)nc3c(F)c(-c4ccccc4C(F)F)ncc23)CCN1C(=O)/C=C/CN1[C@@H]2CC[C@H]1COC2 [Compound 289] | 10 to 100 | 140 (≈ 190 µM) | 2.16
7 | N#CC[C@H]1CN(c2nc(OC[C@@]34CCCN3C[C@H](F)C4)nc3c(F)c(-c4cccc(F)c4C(F)(F)F)ncc23)CCN1C(=O)/C=C/CN1[C@@H]2CC[C@H]1COC2 [Compound 292] | < 10 | 112 (≈ 145 µM) | 2.54
8 | N#CC[C@H]1CN(c2nc(OC[C@@]34CCCN3C[C@H](F)C4)nc3c(F)c(-c4cccc(Cl)c4C(F)(F)F)ncc23)CCN1C(=O)/C=C/CN1CC2CC(C1)O2 [Compound 295] | < 10 | 102 (≈ 132 µM) | 2.75
9 | Cc1cc(/C=C/C(=O)N2CCN(c3nc(OC[C@@]45CCCN4C[C@H](F)C5)nc4c(F)c(-c5cccc(Cl)c5C(F)(F)F)ncc34)C[C@@H]2CC#N)nc(C)n1 [Compound 297] | 10 to 100 | 29.7 (≈ 38.6 µM) | 3.89
10 | N#CC[C@H]1CN(c2nc(OC[C@@]34CCCN3C[C@H](F)C4)nc3c(F)c(-c4cccc5ccc(F)c(F)c45)ncc23)CCN1C(=O)/C=C/CN1CC[C@@H]2COC[C@H]21 [Compound 299] | < 10 | 118 (≈ 153 µM) | 2.95
11 | C[C@@H]1CN(C/C=C/C(=O)N2CCN(c3nc(OC[C@@]45CCCN4C[C@H](F)C5)nc4c(F)c(-c5cccc(Cl)c5C5CC5)ncc34)C[C@@H]2CC#N)C[C@H](C)O1 [Compound 300] | 10 to 100 | 124 (≈ 164 µM) | 4.05
12 | C[C@H]1CN(C/C=C/C(=O)N2CCN(c3nc(OC[C@@]45CCCN4C[C@H](F)C5)nc4c(F)c(-c5cccc(Cl)c5C5CC5)ncc34)C[C@@H]2CC#N)C[C@H](C)O1 [Compound 302] | < 10 | 118 (≈ 155 µM) | 4.21
13 | C[C@@H]1CN(C/C=C/C(=O)N2CCN(c3nc(OC[C@@]45CCCN4C[C@H](F)C5)nc4c(F)c(-c5cccc(Cl)c5C(F)(F)F)ncc34)C[C@@H]2CC#N)C[C@H](C)O1 [Compound 306] | 10 to 100 | 128 (≈ 163 µM) | 3.5
14 | C[C@@H]1CN(C/C=C/C(=O)N2CCN(c3nc(OC[C@@]45CCCN4C[C@H](F)C5)nc4c(F)c(-c5cccc(Cl)c5C(F)(F)F)ncc34)C[C@@H]2CC#N)C[C@@H](C)O1 [Compound 307] | < 10 | 124 (≈ 157 µM) | 3.68
15 | C[C@H]1CN(C/C=C/C(=O)N2CCN(c3nc(OC[C@@]45CCCN4C[C@H](F)C5)nc4c(F)c(-c5cccc(Cl)c5C(F)(F)F)ncc34)C[C@@H]2CC#N)C[C@H](C)O1 [Compound 308] | 10 to 100 | 80.5 (≈ 102 µM) | 3.75
16 | CO[C@H]1CCN(C/C=C/C(=O)N2CCN(c3nc(OC[C@@]45CCCN4C[C@H](F)C5)nc4c(F)c(-c5cccc(Cl)c5C(F)(F)F)ncc34)C[C@@H]2CC#N)C1 [Compound 309] | 10 to 100 | 141 (≈ 182 µM) | 2.79
17 | N#CC[C@H]1CN(c2nc(OC[C@@]34CCCN3C[C@H](F)C4)nc3c(F)c(-c4cccc(Cl)c4C(F)(F)F)ncc23)CCN1C(=O)/C=C/CN1CC[C@H](F)C1 [Compound 310] | 10 to 100 | 123 (≈ 161 µM) | 3.13
18 | CN1CC[C@@H]1/C=C/C(=O)N1CCN(c2nc(OC[C@@]34CCCN3C[C@H](F)C4)nc3c(F)c(-c4cccc(Cl)c4C(F)(F)F)ncc23)C[C@@H]1CC#N [Compound 311] | 100 to 500 | 128 (≈ 175 µM) | 2.54

The next lines start with the values.

Row | IC50 [1] [nM] | solubility kinetic at 2 h [2] [µg/mL] | logD [3] | SMILES
19 | < 10 | 169 (≈ 219 µM) | 2.81 | N#CC[C@H]1CN(c2nc(OC[C@@]34CCCN3C[C@H](F)C4)nc3c(F)c(-c4cccc5cccc(Cl)c45)ncc23)CCN1C(=O)/C=C/CN1C[C@H]2CC[C@@H]1CO2 [Compound 258]
20 | < 10 | 147 (≈ 191 µM) | 2.92 | N#CC[C@H]1CN(c2nc(OC[C@@]34CCCN3C[C@H](F)C4)nc3c(F)c(-c4cccc5cccc(Cl)c45)ncc23)CCN1C(=O)/C=C/CN1C[C@@H]2CC[C@H]1CO2 [Compound 259]
21 | < 10 | 108 (≈ 145 µM) | 3 | N#CC[C@H]1CN(c2nc(OC[C@@]34CCCN3C[C@H](F)C4)nc3c(F)c(-c4cccc(Cl)c4C4CC4)ncc23)CCN1C(=O)/C=C/CN1C[C@H]2C[C@@H]1CO2 [Compound 276]
22 | < 10 | 70.4 (≈ 90.6 µM) | 3.54 | C#Cc1c(F)ccc2cccc(-c3ncc4c(N5CCN(C(=O)/C=C/CN6CC7CCC(C6)O7)[C@@H](CC#N)C5)nc(OC[C@@]56CCCN5C[C@H](F)C6)nc4c3F)c12 [Compound 285]
23 | < 10 | 114 (≈ 152 µM) | 3.23 | CO[C@H]1CCN(C/C=C/C(=O)N2CCN(c3nc(OC[C@@]45CCCN4C[C@H](F)C5)nc4c(F)c(-c5cccc(Cl)c5C5CC5)ncc34)C[C@@H]2CC#N)C1 [Compound 287]
24 | < 10 | 96.7 (≈ 125 µM) | 2.54 | N#CC[C@H]1CN(c2nc(OC[C@@]34CCCN3C[C@H](F)C4)nc3c(F)c(-c4cccc(Cl)c4C(F)(F)F)ncc23)CCN1C(=O)/C=C/CN1C[C@@H]2C[C@H]1CO2 [Compound 293]
25 | < 10 | 127 (≈ 165 µM) | 2.59 | N#CC[C@H]1CN(c2nc(OC[C@@]34CCCN3C[C@H](F)C4)nc3c(F)c(-c4cccc(Cl)c4C(F)(F)F)ncc23)CCN1C(=O)/C=C/CN1C[C@H]2C[C@@H]1CO2 [Compound 294]
26 | < 10 | 118 (≈ 153 µM) | 2.99 | N#CC[C@H]1CN(c2nc(OC[C@@]34CCCN3C[C@H](F)C4)nc3c(F)c(-c4cccc5cccc(Cl)c45)ncc23)CCN1C(=O)/C=C/CN1CC[C@@H]2COC[C@H]21 [Compound 298]
